This is an account of results in patent US12138286B2, “Combination method for treating or preventing childhood atopic disease” (Johnson & Johnson Consumer Inc., priority 2022, dated 2024).

For this data set, the system named is high-risk infants. Further details: species or system human. The following applies: in vivo. The source says:
High-risk infants were identified using parental history of atopic disease and were randomized to either the skin treatment regimen and composition or standard routine care, each set forth below, from soon after recruitment in the postnatal ward (approximately 4 day) until eight weeks of age. Both the intervention and standard of care groups were advised to use a standardized bathing routine for the first 2 months. • Skin treatment regimen and composition: twice daily whole-body application of […] & Long-Lasting Balm, which on pack contains the following ingredients: glycerin, aqua, cetearyl alcohol, isocetyl alcohol, dimethicone, cetyl alcohol, Avena sativa kernel flour, Avena sativa kernel extract, Avena sativa kernel oil, caprylic/capric triglyceride, ceramide 3, ethylhexylglycerin, p-anisic acid, sodium cetearyl sulfate, palmitic acid, stearic acid, sodium sulfate, sodium chloride, citric acid, dipotassium phosphate, potassium phosphate, sodium hydroxide, tocopherol, benzyl alcohol, benzoic acid, and potassium sorbate. • Control: Standard routine care, which involves no use of moisturizer for the first two months. Within approximately 4 days of birth, infants were randomized to either treatment with skin treatment regimen and composition or to standard routine skincare with no moisturizer until 2 months of age. […]

With “AVEENO® Dermexa Fast & Long-Lasting Balm [Intervention]”, the “Infants advised to stop applying the emollient after developing a rash with a potential temporal relationship with the emollient” value is “One” and the Parent-reported skin infections stood at 5%.
